Legend:
ΔF508-CFTR [1] = molecular target: T1, ΔF508-CFTR (Homo sapiens, UniProt P13569, DEL508-508); assay: CFTR cell surface levels using HRP-tagged ΔF508-CFTR expressing CFBE cells, in the presence of a co-corrector; assay type: cell-based; settings: HRP-tagged ΔF508-CFTR expressing CFBE cells, in the presence of 3 μM co-corrector; for EC50: read-out: EC50
T1 construct: host or cells: CFBE41o-, doxycycline-inducible
How it was run: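 Cells were seeded with 0.5 μg/mL doxycycline and held 68 h at 37 °C. Test compounds plus 3 μM co-corrector (final 0.1% DMSO) were then added for 20 h at 33 °C. Washed cells received HRP substrate, and luminescence was normalized between DMSO and 3 μM co-corrector controls.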

ΔF508-CFTR [2] = molecular target: T1, ΔF508-CFTR; assay: CFTR cell surface levels using HRP-tagged ΔF508-CFTR expressing CFBE cells, intrinsic corrector capacity; assay type: cell-based; settings: for EC50: read-out: EC50
How it was run: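 Here the cells express ΔF508-CFTR with horseradish peroxidase inserted in extracellular loop 4, so only rescued channel at the surface gives luminescent signal. Compounds act on their own, 20 h at the reduced temperature of 33 °C; values are percent activity relative to DMSO and a 3 μM corrector.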

[3] = HRP-tagged ΔF508-CFTR expressing CFBE cells, intrinsic corrector capacity (no co-corrector), 33° C., 20 hours
[4] = HRP-tagged ΔF508-CFTR CFBE41o- cells, compounds alone (intrinsic corrector capacity), 20 hours at 33° C., positive control 3 μM corrector
[5] = HRP-tagged ΔF508-CFTR CFBE41o- cells, compounds alone (intrinsic corrector capacity), 20 hours at 33° C.

T1 sequence (P13569 with tags, fused parts or gaps DEL508-508): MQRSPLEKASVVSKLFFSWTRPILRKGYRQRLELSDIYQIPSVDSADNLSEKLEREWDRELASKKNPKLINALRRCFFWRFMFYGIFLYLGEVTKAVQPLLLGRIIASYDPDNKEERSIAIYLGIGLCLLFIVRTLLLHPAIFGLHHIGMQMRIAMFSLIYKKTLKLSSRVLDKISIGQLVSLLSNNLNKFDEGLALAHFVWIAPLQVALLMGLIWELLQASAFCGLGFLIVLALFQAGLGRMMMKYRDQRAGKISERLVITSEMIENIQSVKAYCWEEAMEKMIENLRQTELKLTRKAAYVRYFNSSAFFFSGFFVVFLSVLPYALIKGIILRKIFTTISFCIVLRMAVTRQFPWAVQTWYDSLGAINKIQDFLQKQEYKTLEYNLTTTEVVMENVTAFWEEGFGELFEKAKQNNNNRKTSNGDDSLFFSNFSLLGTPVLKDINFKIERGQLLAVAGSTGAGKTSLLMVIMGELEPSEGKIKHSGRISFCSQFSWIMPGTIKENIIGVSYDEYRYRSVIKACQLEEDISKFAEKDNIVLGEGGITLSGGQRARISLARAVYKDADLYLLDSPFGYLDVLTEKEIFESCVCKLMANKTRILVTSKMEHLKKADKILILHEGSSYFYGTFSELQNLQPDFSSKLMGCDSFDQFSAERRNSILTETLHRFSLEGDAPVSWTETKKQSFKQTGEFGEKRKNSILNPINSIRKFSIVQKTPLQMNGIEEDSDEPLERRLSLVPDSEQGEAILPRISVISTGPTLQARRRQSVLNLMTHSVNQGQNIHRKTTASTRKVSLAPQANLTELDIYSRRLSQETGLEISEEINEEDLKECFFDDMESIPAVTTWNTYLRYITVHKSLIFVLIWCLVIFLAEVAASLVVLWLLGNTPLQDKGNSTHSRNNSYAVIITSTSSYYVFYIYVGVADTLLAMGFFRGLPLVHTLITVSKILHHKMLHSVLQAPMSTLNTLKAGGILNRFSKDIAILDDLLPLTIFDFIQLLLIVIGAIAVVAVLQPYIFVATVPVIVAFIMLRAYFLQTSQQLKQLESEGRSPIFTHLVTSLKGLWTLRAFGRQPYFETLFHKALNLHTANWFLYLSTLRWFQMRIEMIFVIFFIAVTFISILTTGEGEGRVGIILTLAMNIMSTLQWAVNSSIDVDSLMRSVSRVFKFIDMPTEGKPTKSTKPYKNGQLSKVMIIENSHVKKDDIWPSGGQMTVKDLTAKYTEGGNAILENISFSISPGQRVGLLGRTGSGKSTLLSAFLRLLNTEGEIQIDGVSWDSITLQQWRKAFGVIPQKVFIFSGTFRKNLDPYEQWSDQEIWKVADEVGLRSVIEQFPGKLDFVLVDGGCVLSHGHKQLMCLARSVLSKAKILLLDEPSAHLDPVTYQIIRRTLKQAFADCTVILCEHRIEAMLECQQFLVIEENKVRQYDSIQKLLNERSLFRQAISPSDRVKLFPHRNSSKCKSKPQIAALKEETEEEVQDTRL

With O=C(O)c1cc(N2CCN(CCCN3CCOCC3)CC2)c2c(C3CCC3)nn(-c3ccccc3)c2n1 [compound 558, 3-cyclobutyl-4-{4-[3-(morpholin-4-yl)propyl]piperazin-1-yl}-1-phenyl-1H-pyrazolo[3,4-b]pyridine-6-carboxylic acid] the “% Activation” value (ΔF508-CFTR [1]) was 322.5%, the EC50 (ΔF508-CFTR [1]) was 778 nM and the “% Activation” value (ΔF508-CFTR [2]; [3]) was 121.3%. The EC50 (ΔF508-CFTR [2]; [3]) was 1370 nM.
With O=C(O)c1cc(N2CCN3C[C@@H](F)C[C@H]3C2)c2c(C3CCC3)nn(-c3ccccc3)c2n1 [compound 515, 3-cyclobutyl-4-[(7S,8aS)-7-fluorohexahydropyrrolo[1,2-a]pyrazin-2(11/)-yl]-1-phenyl-1H-pyrazolo[3,4-b]pyridine-6-carboxylic acid] the “% Activation” value (ΔF508-CFTR [1]) was 173.5%, the EC50 (ΔF508-CFTR [1]) was 3330 nM and the “% Activation” value (ΔF508-CFTR [2]; [3]) was 15.59%. The EC50 (ΔF508-CFTR [2]; [3]) was greater than 10000 nM.
CC(C)c1nn(-c2cc(F)cc(F)c2)c2nc(C(=O)O)cc(-c3ccc(N4CCC(C#N)CC4)cc3)c12 [compound 282, 4-[4-(4-cyanopiperidin-1-yl)phenyl]-1-(3,5-difluorophenyl)-3-(propan-2-yl)-1H-pyrazolo[3,4-b]pyridine-6-carboxylic acid] was tested, and the “% Activation” value (ΔF508-CFTR [1]) was 476.23%, the EC50 (ΔF508-CFTR [1]) was 341 nM and the “% Activation” value (ΔF508-CFTR [2]; [4]) was 269.33%. The EC50 (ΔF508-CFTR [2]; [5]) was 492 nM.
In the case of CC1(COc2cc(C(=O)O)nc3c2c(C2CCC2)nn3-c2ccccc2)COCOC1 [compound 622, 3-cyclobutyl-4-[(5-methyl-1,3-dioxan-5-yl)methoxy]-1-phenyl-1H-pyrazolo[3,4-b]pyridine-6-carboxylic acid], the “% Activation” value (ΔF508-CFTR [1]) is reported as 275.2%, the EC50 (ΔF508-CFTR [1]) is reported as 67.5 nM and the “% Activation” value (ΔF508-CFTR [2]; [3]) is reported as 124.5%. It also gave an EC50 (ΔF508-CFTR [2]; [3]) of 165 nM.
With O=C(O)c1cc(N2CCC(N3CC4CC3CO4)CC2)c2c(C3CCC3)nn(-c3ccc(F)cc3)c2n1 (stereo not shown) [compound 852, 3-cyclobutyl-1-(4-fluorophenyl)-4-[4-(2-oxa-5-azabicyclo[2.2.1]heptan-5-yl)piperidin-1-yl]-1H-pyrazolo[3,4-b]pyridine-6-carboxylic acid] the “% Activation” value (ΔF508-CFTR [1]) was 391.4%, the EC50 (ΔF508-CFTR [1]) was 3330 nM and the “% Activation” value (ΔF508-CFTR [2]; [3]) was 120.6%. The EC50 (ΔF508-CFTR [2]; [3]) was 1710 nM.
CC(C)N1CCC2CN(c3cc(C(=O)O)nc4c3c(C3CCC3)nn4-c3ccc(F)cc3)CCC21 (stereo not shown) [compound 900, 3-cyclobutyl-1-(4-fluorophenyl)-4-[1-(propan-2-yl)octahydro-5H-pyrrolo[3,2-c]pyridin-5-yl]-1H-pyrazolo[3,4-b]pyridine-6-carboxylic acid] was tested, and the “% Activation” value (ΔF508-CFTR [1]) was 389.73%, the EC50 (ΔF508-CFTR [1]) was 216 nM and the “% Activation” value (ΔF508-CFTR [2]; [3]) was 183.97%. It also gave an EC50 (ΔF508-CFTR [2]; [3]) of 433 nM.
In the case of O=C(O)c1cc(N2CCC(F)(F)CC2)c2c(C3CCC3)nn(-c3ccccc3)c2n1 [compound 594, 3-cyclobutyl-4-(4,4-difluoropiperidin-1-yl)-1-phenyl-1H-pyrazolo[3,4-b]pyridine-6-carboxylic acid], the “% Activation” value (ΔF508-CFTR [1]) is reported as 269.8%, the EC50 (ΔF508-CFTR [1]) is reported as 621 nM and the “% Activation” value (ΔF508-CFTR [2]; [3]) is reported as 75.66%. It also gave an EC50 (ΔF508-CFTR [2]; [3]) of 787 nM.
For O=C(O)c1cc(N2CCC(CN3CCC4(CC3)COC4)CC2)c2c(C3CCC3)nn(-c3ccccc3)c2n1 [compound 840, 3-cyclobutyl-4-{4-[(2-oxa-7-azaspiro[3.5]nonan-7-yl)methyl]piperidin-1-yl}-1-phenyl-1H-pyrazolo[3,4-b]pyridine-6-carboxylic acid], the “% Activation” value (ΔF508-CFTR [1]) was 368.8%, the EC50 (ΔF508-CFTR [1]) was 250 nM and the “% Activation” value (ΔF508-CFTR [2]; [3]) was 164.4%. It also gave an EC50 (ΔF508-CFTR [2]; [3]) of 400 nM.
In the case of O=C(O)c1cc(N2CC3(CCCC3)C2)c2c(C3CCC3)nn(-c3ccccc3)c2n1 [compound 404, 4-(2-azaspiro[3.4]octan-2-yl)-3-cyclobutyl-1-phenyl-1H-pyrazolo[3,4-b]pyridine-6-carboxylic acid], the “% Activation” value (ΔF508-CFTR [1]) is reported as 275.95%, the EC50 (ΔF508-CFTR [1]) is reported as 849 nM and the “% Activation” value (ΔF508-CFTR [2]; [3]) is reported as 104.91%. It also gave an EC50 (ΔF508-CFTR [2]; [3]) of 910 nM.
CC(C)c1nn(-c2ccc(F)cc2)c2nc(C(=O)O)cc(OCCC3CCOCC3)c12 [compound 604, 1-(4-fluorophenyl)-4-[2-(oxan-4-yl)ethoxy]-3-(propan-2-yl)-1H-pyrazolo[3,4-b]pyridine-6-carboxylic acid] was tested, and the “% Activation” value (ΔF508-CFTR [1]) was 292.2%, the EC50 (ΔF508-CFTR [1]) was 256 nM and the “% Activation” value (ΔF508-CFTR [2]; [3]) was 142.9%. For the same compound, the EC50 (ΔF508-CFTR [2]; [3]) was 738 nM.
In the case of N#CC1CCN(c2ccc(-c3cc(C(=O)O)nc4c3c(OC3CCOC3)nn4-c3ccccc3)cn2)CC1 (stereo not shown) [compound 591, 4-[6-(4-cyanopiperidin-1-yl)pyridin-3-yl]-3-[(oxolan-3-yl)oxy]-1-phenyl-1H-pyrazolo[3,4-b]pyridine-6-carboxylic acid], the “% Activation” value (ΔF508-CFTR [1]) is reported as 286.4%, the EC50 (ΔF508-CFTR [1]) is reported as 450 nM and the “% Activation” value (ΔF508-CFTR [2]; [3]) is reported as 106.3%. It also gave an EC50 (ΔF508-CFTR [2]; [3]) of 926 nM.
CC(C)c1nn([C@@H]2CCC[C@@H](O)C2)c2nc(C(=O)O)cc(-c3ccc(N4CCOCC4)cc3)c12 (racemic) [compound 194, rac-1-[(1R,3R)-3-hydroxycyclohexyl]-4-[4-(morpholin-4-yl)phenyl]-3-(propan-2-yl)-1H-pyrazolo[3,4-b]pyridine-6-carboxylic acid] was tested, and the “% Activation” value (ΔF508-CFTR [1]) was 233.9%, the EC50 (ΔF508-CFTR [1]) was 1250 nM and the “% Activation” value (ΔF508-CFTR [2]; [4]) was 86.36%. For the same compound, the EC50 (ΔF508-CFTR [2]; [5]) was 1710 nM.
COc1cccc(-n2nc(C)c3c(-c4ccc(N5CCN(CC#N)CC5)cc4)cc(C(=O)O)nc32)c1 [compound 232, 4-{4-[4-(cyanomethyl)piperazin-1-yl]phenyl}-1-(3-methoxyphenyl)-3-methyl-1H-pyrazolo[3,4-b]pyridine-6-carboxylic acid] was tested, and the “% Activation” value (ΔF508-CFTR [1]) was 380.95%, the EC50 (ΔF508-CFTR [1]) was 1280 nM and the “% Activation” value (ΔF508-CFTR [2]; [4]) was 215.6%. It also gave an EC50 (ΔF508-CFTR [2]; [5]) of 1680 nM.
For CN(C)CCOc1cc(C(=O)O)nc2c1c(C1CCC1)nn2-c1ccccc1 [compound 637, 3-cyclobutyl-4-[2-(dimethylamino)ethoxy]-1-phenyl-1H-pyrazolo[3,4-b]pyridine-6-carboxylic acid], the “% Activation” value (ΔF508-CFTR [1]) was 174.45%, the EC50 (ΔF508-CFTR [1]) was 3010 nM and the “% Activation” value (ΔF508-CFTR [2]; [3]) was 49.14%. For the same compound, the EC50 (ΔF508-CFTR [2]; [3]) was 3330 nM.
For O=C(O)c1cc(CN2CCC(N3CCOCC3)CC2)c2c(C3CCC3)nn(-c3ccc(F)cc3)c2n1 [compound 893, 3-Cyclobutyl-1-(4-fluoro-phenyl)-4-(4-morpholin-4-yl-piperidin-1-ylmethyl)-1H-pyrazolo[3,4-b]pyridine-6-carboxylic acid], the “% Activation” value (ΔF508-CFTR [1]) was 236.6%, the EC50 (ΔF508-CFTR [1]) was 3330 nM and the “% Activation” value (ΔF508-CFTR [2]; [3]) was 55.75%. It also gave an EC50 (ΔF508-CFTR [2]; [3]) of 3140 nM.
For CN1CCC[C@H](Oc2cc(C(=O)O)nc3c2c(C2CCC2)nn3-c2ccccc2)C1 [compound 494, 3-cyclobutyl-4-{[(3S)-1-methylpiperidin-3-yl]oxy}-1-phenyl-1H-pyrazolo[3,4-b]pyridine-6-carboxylic acid], the “% Activation” value (ΔF508-CFTR [1]) was 196.7%, the EC50 (ΔF508-CFTR [1]) was 1160 nM and the “% Activation” value (ΔF508-CFTR [2]; [3]) was 65.56%. It also gave an EC50 (ΔF508-CFTR [2]; [3]) of 3280 nM.
For COCCN(C)c1ccc(-c2cc(C(=O)O)nc3c2c(C(C)C)nn3-c2cccc(N3CCOCC3)c2)cc1 [compound 188, 4-{4-[(2-methoxyethyl)(methyl)amino]phenyl}-1[3-(morpholin-4-yl)phenyl]-3-(propan-2-yl)-1H-pyrazolo[3,4-b]pyridine-6-carboxylic acid], the “% Activation” value (ΔF508-CFTR [1]) was 432.9%, the EC50 (ΔF508-CFTR [1]) was 499 nM and the “% Activation” value (ΔF508-CFTR [2]; [4]) was 282.4%. The EC50 (ΔF508-CFTR [2]; [5]) was 636 nM.
With CC(=O)N1CCN(c2cc(C(=O)O)nc3c2c(C(C)C)nn3-c2ccc(F)cc2)CC1 [compound 771, 4-(4-acetylpiperazin-1-yl)-1-(4-fluorophenyl)-3-(propan-2-yl)-1H-pyrazolo[3,4-b]pyridine-6-carboxylic acid] the “% Activation” value (ΔF508-CFTR [1]) was 290.8%, the EC50 (ΔF508-CFTR [1]) was 1670 nM and the “% Activation” value (ΔF508-CFTR [2]; [3]) was 94.91%. For the same compound, the EC50 (ΔF508-CFTR [2]; [3]) was 1670 nM.
In the case of CC(C)CN1C[C@@H]2CN(c3cc(C(=O)O)nc4c3c(C3CCC3)nn4-c3ccccc3)C[C@@H]2C1 [compound 692, 3-cyclobutyl-4-[(3aR,6aS)-5-(2-methylpropyl)hexahydropyrrolo[3,4-c]pyrrol-2(1H)-yl]-1-phenyl-1H-pyrazolo[3,4-b]pyridine-6-carboxylic acid], the “% Activation” value (ΔF508-CFTR [1]) is reported as 381.4%, the EC50 (ΔF508-CFTR [1]) is reported as 931 nM and the “% Activation” value (ΔF508-CFTR [2]; [3]) is reported as 208.1%. The EC50 (ΔF508-CFTR [2]; [3]) was 1670 nM.
O=C(O)c1cc(OCCN(C2CCCCC2)C2COC2)c2c(C3CCC3)nn(-c3ccccc3)c2n1 [compound 625, 3-cyclobutyl-4-{2-[cyclohexyl(oxetan-3-yl)amino]ethoxy}-1-phenyl-1H-pyrazolo[3,4-b]pyridine-6-carboxylic acid] was tested, and the “% Activation” value (ΔF508-CFTR [1]) was 326.75%, the EC50 (ΔF508-CFTR [1]) was 126 nM and the “% Activation” value (ΔF508-CFTR [2]; [3]) was 135.2%. It also gave an EC50 (ΔF508-CFTR [2]; [3]) of 300 nM.
For CO[C@H]1CCCC[C@@H]1Oc1cc(C(=O)O)nc2c1c(C1CCC1)nn2-c1ccccc1 [compound 580, 3-cyclobutyl-4-{[(1S,2S)-2-methoxycyclohexyl]oxy}-1-phenyl-1H-pyrazolo[3,4-b]pyridine-6-carboxylic acid], the “% Activation” value (ΔF508-CFTR [1]) was 288%, the EC50 (ΔF508-CFTR [1]) was 312 nM and the “% Activation” value (ΔF508-CFTR [2]; [3]) was 88.82%. For the same compound, the EC50 (ΔF508-CFTR [2]; [3]) was 333 nM.
For CC(C)c1nn(-c2ccc(F)c(F)c2)c2nc(C(=O)O)cc(-c3ccc(N(C)C4CCOCC4)cc3)c12 [compound 278, 1-(3,4-difluorophenyl)-4-{4-[methyl(oxan-4-yl)amino]phenyl}-3-(propan-2-yl)-1H-pyrazolo[3,4-b]pyridine-6-carboxylic acid], the “% Activation” value (ΔF508-CFTR [1]) was 446.55%, the EC50 (ΔF508-CFTR [1]) was 676 nM and the “% Activation” value (ΔF508-CFTR [2]; [4]) was 259.1%. The EC50 (ΔF508-CFTR [2]; [5]) was 991 nM.

Source: patent publication US9796711B2, “Substituted pyrazolo[3,4-b]pyridin-6-carboxylic acids and method of use” (AbbVie S.àr.l., priority 2015, dated 2017)
